The source made the active and inactive calls. How the calls were made is not given here.
The compounds below were run against Ubiquitin carboxyl-terminal hydrolase 8 (Homo sapiens) (UniProt P40818) (assay: Ubiquitin-specific protease 8 inhibitors, concentration-effect, biochemical, validation of initial actives (AID 1645862;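 further: potency reflects inhibition of USP8 cleavage of a ubiquitin rhodamine substrate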)). Settings: recombinant USP8 deubiquitinase activity assay.
Ubiquitin carboxyl-terminal hydrolase 8 (Homo sapiens), sequence (P40818 whole entry, looked up): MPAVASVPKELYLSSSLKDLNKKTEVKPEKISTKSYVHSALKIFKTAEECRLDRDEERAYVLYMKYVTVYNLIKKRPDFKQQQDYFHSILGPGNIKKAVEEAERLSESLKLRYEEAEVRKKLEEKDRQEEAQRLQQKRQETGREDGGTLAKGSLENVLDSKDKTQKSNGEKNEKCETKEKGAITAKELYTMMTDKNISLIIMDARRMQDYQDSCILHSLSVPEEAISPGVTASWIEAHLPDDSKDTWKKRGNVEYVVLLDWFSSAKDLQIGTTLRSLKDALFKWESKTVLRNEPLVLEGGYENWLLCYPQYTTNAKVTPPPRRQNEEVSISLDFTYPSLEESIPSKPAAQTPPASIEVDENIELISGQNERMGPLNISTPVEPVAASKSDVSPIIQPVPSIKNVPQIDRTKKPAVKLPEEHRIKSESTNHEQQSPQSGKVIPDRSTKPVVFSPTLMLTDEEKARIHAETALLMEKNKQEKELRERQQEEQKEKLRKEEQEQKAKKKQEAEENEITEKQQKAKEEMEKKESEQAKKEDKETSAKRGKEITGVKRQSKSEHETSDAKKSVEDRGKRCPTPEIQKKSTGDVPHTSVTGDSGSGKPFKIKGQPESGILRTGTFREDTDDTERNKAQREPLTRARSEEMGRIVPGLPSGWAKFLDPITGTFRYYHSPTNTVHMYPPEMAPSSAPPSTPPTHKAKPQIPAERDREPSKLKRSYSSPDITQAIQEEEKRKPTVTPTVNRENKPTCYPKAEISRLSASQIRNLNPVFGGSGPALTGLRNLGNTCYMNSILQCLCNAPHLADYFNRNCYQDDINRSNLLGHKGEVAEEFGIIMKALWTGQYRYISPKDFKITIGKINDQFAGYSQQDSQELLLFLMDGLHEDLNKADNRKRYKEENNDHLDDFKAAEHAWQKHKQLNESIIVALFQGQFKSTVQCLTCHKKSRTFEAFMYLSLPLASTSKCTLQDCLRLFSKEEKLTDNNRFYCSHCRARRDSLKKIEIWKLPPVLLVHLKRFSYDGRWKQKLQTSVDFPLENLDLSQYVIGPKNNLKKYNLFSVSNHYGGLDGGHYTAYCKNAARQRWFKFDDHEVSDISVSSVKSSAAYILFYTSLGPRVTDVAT
For `Cc1cc(O)c(=O)cc2c1C[C@H]1CC(C)(C)/C=C/C[C@@]3(C)Oc4cc(=O)c(O)cc(C)c4C[C@@H]3C[C@H](O)[C@]1(C)O2`, the IC50 was > 40 µM (inactive). `O=C(Cn1c(=O)n(Cc2ccc(C(=O)NCc3ccco3)cc2)c(=O)c2ccccc21)Nc1ccc2c(c1)OCCO2` was tested, and the IC50 was > 40 µM (inactive). With `O=C(CCCCn1c(=O)c2ccccc2n(CC(=O)Nc2ccc3c(c2)OCCO3)c1=O)NCc1ccco1` the IC50 was > 40 µM (inactive). With `COc1ccc(NC(=O)c2nnc(C(=O)NCCN3CCCCCC3)s2)cc1` the IC50 was > 40 µM (inactive). In the case of `CCCCN1CC(C(=O)Nc2ccc(C(=O)Nc3ccc(C(N)=O)cc3)cc2)CC1=O` (configuration not stated), the IC50 is reported as > 40 µM (inactive). `Cc1cc(C(=O)Nc2cc([N+](=O)[O-])cc3oc(-c4ccccc4)cc23)on1` was tested, and the IC50 was > 40 µM (inactive). In the case of `O=c1cc(Cc2ccccc2)nc2c(-c3ccccc3)c(COc3ccccc3)[nH]n12`, the IC50 is reported as > 40 µM (inactive). `CC(C)c1ccc(NC(=O)COC(=O)c2ccc(NS(=O)(=O)c3ccc4c(c3)OCCO4)cc2)cc1` was tested, and the IC50 was > 40 µM (inactive). `COc1cccc(NC(=O)Cn2cc(C(=O)c3ccc(C)cc3)c(=O)c3cc(Cl)ccc32)c1` showed an IC50 of 19.3 µM. In the case of `COc1ccc(C2NC(=O)NC(C)=C2C(=O)OCC2CCCCC2)cc1OC` (configuration not stated), the IC50 is reported as > 40 µM (inactive). `CC(=O)NS(=O)(=O)c1ccc(NC(=O)/C=C/c2cn(-c3ccccc3)nc2-c2ccccc2)cc1` showed an IC50 of 29.4 µM. With `Cc1cc(=O)n(C)c2c(O)c3c(cc12)c(C)cc(=O)n3C` the IC50 was 0.256 µM. In the case of `Cc1csc(NC(=O)c2c[nH]c3ccc(F)cc3c2=O)n1`, the IC50 is reported as > 40 µM (inactive). With `CC[C@@H](C(=O)[C@@H](C)[C@@H](O)[C@H](C)CCc1ccc(C)c(O)c1C(=O)O)[C@@H]1O[C@](CC)([C@H]2CC[C@](O)(CC)[C@H](C)O2)C[C@@H]1C` the IC50 was > 40 µM (inactive). In the case of `COc1cc(Cl)c(NC(=O)c2cc(-c3ccccn3)n[nH]2)c(OC)c1`, the IC50 is reported as > 40 µM (inactive). With `Cc1ccc(C(=O)Nc2ccc3c(c2)Sc2ncccc2C(=O)N3C(C)C)cc1C` the IC50 was > 40 µM (inactive). With `O=c1cc(-c2ccc(O)c(O)c2)oc2cc(O)cc(O)c12` the IC50 was 2.07 µM. `COc1ccccc1CNC(=O)C1c2ccccc2C(=O)N1Cc1ccccc1C` (configuration not stated) was tested, and the IC50 was > 40 µM (inactive). In the case of `O=C(NCc1ccc2c(c1)OCO2)c1cn(-c2cccc(Cl)c2)nn1`, the IC50 is reported as > 40 µM (inactive). In the case of `CC(=O)Nc1cccc(-c2cnc3sc(NC4CCCCC4)nn23)c1`, the IC50 is reported as > 40 µM (inactive). In the case of `Cc1ccnc(NS(=O)(=O)c2ccc(NC(=O)c3ccc(S(=O)(=O)N(C)Cc4ccccc4)cc3)cc2)n1`, the IC50 is reported as > 40 µM (inactive). For `CCOc1ccc(NC(=O)Cn2c(=O)n(CCC(=O)NCc3ccco3)c(=O)c3ccccc32)cc1`, the IC50 was > 40 µM (inactive). With `O=C(Cn1c(=O)c2ccccc2n(CC(=O)Nc2cc(Cl)cc(Cl)c2)c1=O)NCc1ccco1` the IC50 was > 40 µM (inactive). `Cn1c(=O)c2ncnnc2n(C)c1=O` was tested, and the IC50 was 0.717 µM. In the case of `Cc1cc(N2CCOCC2)nc(N2CCN(C(=O)C(C)Oc3ccccc3)CC2)n1` (configuration not stated), the IC50 is reported as > 40 µM (inactive). In the case of `COCCCN1CCS(=O)(=O)c2c(Cl)c(F)nc(Oc3ccccc3F)c21`, the IC50 is reported as > 40 µM (inactive). In the case of `O=C(NC1CCCCCC1)c1cccc(S(=O)(=O)Nc2cc(C(F)(F)F)ccc2Cl)c1`, the IC50 is reported as > 40 µM (inactive). In the case of `CCCCOc1ccc(C(=O)n2ccn(S(=O)(=O)c3ccc(C)cc3)c2=O)cc1`, the IC50 is reported as > 40 µM (inactive). For `Fc1cc(F)c2[nH]cc(-c3nnnn3-c3ccc4ccccc4c3)c2c1`, the IC50 was > 40 µM (inactive). In the case of `CN(C)c1ccc(CNC(=O)c2nnc(C(=O)Nc3ccccc3)s2)cc1`, the IC50 is reported as > 40 µM (inactive). `O=S1(=O)CCN(CC2CCCO2)c2c(Oc3ccccc3)nc(F)c(Cl)c21` (configuration not stated) was tested, and the IC50 was > 40 µM (inactive). `CC(C)n1cc(CN2CCC(C(=O)Nc3cccc(-c4cccc(Cl)c4)c3)CC2)cn1` was tested, and the IC50 was > 40 µM (inactive). `COc1c(O)cc(CC(=O)O)c(C(C)=O)c1O` gave an IC50 of 4.69 µM. In the case of `O=C(CSc1nc(=O)n(Cc2ccncc2)c2c1CCC2)NCCc1ccccc1`, the IC50 is reported as > 40 µM (inactive). `Cc1cccn2c(=O)c3cc(C#N)c(=O)n(-c4cccc(C(F)(F)F)c4)c3nc12` was tested, and the IC50 was > 40 µM (inactive). For `C[C@H](NC(=O)Cc1ccccc1F)c1nc2cc(-c3ccccc3F)ncn2n1`, the IC50 was > 40 µM (inactive). In the case of `NS(=O)(=O)c1ccc(CNS(=O)(=O)/C=C/c2ccccc2)cc1`, the IC50 is reported as > 40 µM (inactive). For `COc1ccc(-c2cc3c(=O)n(CC(=O)NCc4ccccc4)ncn3n2)cc1`, the IC50 was > 40 µM (inactive). For `O=C(COc1ccccc1)Nc1ccc(-c2nc3cnccc3o2)c(O)c1`, the IC50 was > 40 µM (inactive). In the case of `O=C(Nc1cccc(Cl)c1)c1ncn2c1CNS(=O)(=O)c1ccccc1-2`, the IC50 is reported as > 40 µM (inactive). In the case of `Cc1ccc(C)c(Cn2cnc3c(nnn3-c3cccc(F)c3)c2=O)c1`, the IC50 is reported as > 40 µM (inactive). `Cc1ccc(Cn2cc(-c3noc(C(=O)Nc4cc(F)ccc4F)n3)nn2)cc1` showed an IC50 of 21.8 µM. In the case of `CN(CC(=O)Nc1ccc(Cl)cc1)c1cnn(-c2nc3ccccc3[nH]2)c(=O)c1Cl`, the IC50 is reported as > 40 µM (inactive). `COC(=O)c1ccccc1NC(=O)Cn1c(=O)n(Cc2ccc(C(=O)NCc3ccco3)cc2)c(=O)c2ccccc21` was tested, and the IC50 was > 40 µM (inactive). With `CCOc1ccc(CC(=O)Nc2ccc(-c3cn4cccnc4n3)cc2)cc1` the IC50 was > 40 µM (inactive). `COc1ccc(-c2nc(-c3nnn(Cc4ccc(F)cc4)c3C)no2)c(OC)c1` was tested, and the IC50 was > 40 µM (inactive). `O=C(Nc1ccccc1F)c1nc(-c2cn(-c3ccc(F)cc3)nn2)no1` showed an IC50 of 22.4 µM. `COc1ccc(Oc2cc3n(c(=O)n2)CCc2cc(OC)c(OC)cc2-3)cc1` was tested, and the IC50 was > 40 µM (inactive). For `COc1ccc(Cn2nc(C)cc2NC(=O)c2cccc(F)c2)cc1OC`, the IC50 was > 40 µM (inactive). In the case of `O=C(CCc1nnc2n(Cc3ccccc3)c(=O)c3ccccc3n12)NCc1ccc2c(c1)OCO2`, the IC50 is reported as > 40 µM (inactive). `COc1ccc2c(c1)CCc1c-2nc2ccccc2c1N1CCOCC1` was tested, and the IC50 was > 40 µM (inactive). In the case of `Cc1noc(-c2cc(=O)n(CC(=O)NCc3ccccc3F)c3ccccc23)n1`, the IC50 is reported as > 40 µM (inactive). Compound `O=C(Nc1ccccc1-c1nc2ccccc2[nH]1)c1sc2ccccc2c1Cl` has an IC50 of 10.5 µM. With `CC1(C(=O)NCc2ccc(F)cc2)Cn2nc(-c3ccco3)cc2C(=O)N1c1ccc2c(c1)OCCO2` (configuration not stated) the IC50 was > 40 µM (inactive). With `O=C(Cn1nc2c3c4c(sc3ncn2c1=O)CCCCC4)Nc1ccc(Cl)cc1F` the IC50 was 26.1 µM. With `Cc1ccc(CNC(=O)c2cccc(N3C(=O)N4CCc5c([nH]c6ccccc56)[C@@]4(C)C3=O)c2)cc1` the IC50 was > 40 µM (inactive). `CCc1ccc(S(=O)(=O)c2cn(CC(=O)Nc3ccccc3)c3ccccc3c2=O)cc1` was tested, and the IC50 was > 40 µM (inactive). `CSc1cccc(NC(=O)c2cc(-c3cccnc3)n[nH]2)c1` was tested, and the IC50 was > 40 µM (inactive). For `N#Cc1cccnc1N1CCN(C(=O)Nc2cccc3ccccc23)CC1`, the IC50 was > 40 µM (inactive). Work on `CCCCCCCc1cc(OC(=O)c2c(CCCCCCC)cc(O)cc2O[C@@H]2O[C@H](CO)[C@@H](O)[C@H](O)[C@H]2O)cc(O)c1C(=O)O` yielded an IC50 of 8.09 µM. `Cc1ccc(S(=O)(=O)Nc2ccccc2C(=O)Nc2nc3ccc(Br)cc3s2)cc1` gave an IC50 of 18.9 µM. With `O=c1[nH]c(C2CCN(S(=O)(=O)c3ccc(S(=O)(=O)NC4CCCCC4)cc3)CC2)nc2c1nnn2Cc1c(Cl)cccc1Cl` the IC50 was > 40 µM (inactive). `O=C(Cn1c(=O)n(CC2CCC(C(=O)NCCc3ccccc3)CC2)c(=O)c2ccccc21)NCc1ccco1` (configuration not stated) was tested, and the IC50 was > 40 µM (inactive). `CCN(CC)C(=O)c1sc(NC(=O)/C=C/c2c(F)cccc2Cl)c(C#N)c1C` was tested, and the IC50 was > 40 µM (inactive). In the case of `COc1ccc(-c2cc3nc([C@H](C)NC(=O)CC4CCCC4)nn3cn2)cc1`, the IC50 is reported as > 40 µM (inactive). With `O=C(Nc1ccccc1C(F)(F)F)c1cccc(S(=O)(=O)Nc2cc(C(F)(F)F)ccc2Cl)c1` the IC50 was > 40 µM (inactive). For `O=C(Cn1c(=O)[nH]c2c(-c3ccccc3)c[nH]c2c1=O)NCc1ccccc1Cl`, the IC50 was > 40 µM (inactive). `O=C(Nc1cccc(C(F)(F)F)c1)c1cc2c(s1)-c1ccccc1OC2` was tested, and the IC50 was > 40 µM (inactive). With `O=C(NCCc1ccccc1)c1ccc2c(=O)n(Cc3ccco3)c(=O)n(Cc3cccc([N+](=O)[O-])c3)c2c1` the IC50 was 15.4 µM. With `O=C(/C=C/c1ccc2c(c1)OCO2)Nc1nc2n(n1)C(c1ccccc1)CC(=O)N2` (configuration not stated) the IC50 was > 40 µM (inactive). With `O=C(Cc1ccc(-n2c(=O)c3ccccc3n(Cc3cccc([N+](=O)[O-])c3)c2=O)cc1)NC1CCCC1` the IC50 was > 40 µM (inactive). For `Nc1ccc(C(=O)OCC(=O)NC2CCCc3ccccc32)cc1[N+](=O)[O-]` (configuration not stated), the IC50 was > 40 µM (inactive). `COc1ccc(Cl)cc1NC(=O)Cn1c(=O)n(CCC(=O)NC2CCCC2)c(=O)c2ccccc21` was tested, and the IC50 was > 40 µM (inactive). `CNC(=O)Cc1ccc(NC(=O)/C=C/c2cn(-c3ccccc3)nc2-c2ccc(F)cc2)cc1` was tested, and the IC50 was > 40 µM (inactive). With `N#Cc1ccc(NC(=O)Nc2cccn(Cc3ccccc3F)c2=O)cc1` the IC50 was > 40 µM (inactive). With `COc1ccc(NC(=O)CC(=O)c2ccc([N+](=O)[O-])cc2)cc1S(=O)(=O)Nc1ccc(Cl)cc1` the IC50 was > 40 µM (inactive). For `COc1ccc(-n2c(=O)c3ccc(C(=O)NCCc4ccccc4)cc3n(CC(=O)NCCC3=CCCCC3)c2=O)cc1`, the IC50 was > 40 µM (inactive). For `O=C(NCc1ccco1)c1ccc(Cn2c(SCc3ccccc3)nc3ccncc32)cc1`, the IC50 was > 40 µM (inactive). In the case of `CCc1ccccc1NC(=O)CN1C(=O)C2CCCC2=Nc2ccccc21` (configuration not stated), the IC50 is reported as > 40 µM (inactive). With `COc1ccccc1CNC(=O)CCCCn1c(=O)c2ccccc2n(Cc2ccc(C)cc2)c1=O` the IC50 was > 40 µM (inactive). With `CC(C)=CCc1c2c(c3occ(-c4ccc(O)cc4)c(=O)c3c1O)C=CC(C)(C)O2` the IC50 was > 40 µM (inactive). In the case of `Cc1cc(C)c(NC(=O)Cc2sc(Nc3ccc(C)c(C)c3)nc2O)c(C)c1`, the IC50 is reported as > 40 µM (inactive). With `Fc1ccccc1-c1nnc(C2(c3ccc4c(c3)OCO4)CCOCC2)o1` the IC50 was > 40 µM (inactive). `CCOC(=O)N1CCN(C(=O)c2ccc(CS(=O)c3ccccc3Cl)o2)CC1` (configuration not stated) was tested, and the IC50 was > 40 µM (inactive). In the case of `Cn1c(=O)n(CCc2ccccc2)c(=O)c2c1nc1n2CCN1Cc1ccccc1`, the IC50 is reported as > 40 µM (inactive). `COc1ccc2c(c1)c(CC(=O)Nc1ccc(N3CCOCC3)cc1)c(C)n2C(=O)c1ccc(Cl)cc1` was tested, and the IC50 was > 40 µM (inactive). For `CCOc1ccccc1-c1cc(NC(=O)c2cc3ccc4cccnc4c3[nH]2)on1`, the IC50 was > 40 µM (inactive).
